Measurements taken from the supplement of paper PMC10307832.

Assays:
Experiment in all cases: relative viability (nuclei count vs DMSO), 5 days (fraction); higher = more cells survive
[1] = compound: COC1=CC=C(C=C1)COC2=C(C=C(C=C2)CC3=CN=C(N=C3N)N)OC [GW-2580] + CC(=O)Nc1cccc(-n2c(=O)n(C3CC3)c(=O)c3c(Nc4ccc(I)cc4F)n(C)c(=O)c(C)c32)c1 [Trametinib] (partner 0.02 µM)
Summary of the method: (§1)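 Each reported value is a median over duplicate plates. It expresses relative viability: treated-well nuclei count divided by vehicle-well nuclei count. Lung cancer cell lines in 1536-well plates were dosed by pin tool a day after seeding, alone with one drug or with a fixed anchor-drug dose plus five library-drug doses (not always all listed) in √10 steps, and nuclei were counted after 5 days.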

[2] = compound: COC1=CC=C(C=C1)COC2=C(C=C(C=C2)CC3=CN=C(N=C3N)N)OC [GW-2580] + CS(=O)(=O)N1CCN(Cc2cc3nc(-c4cccc5[nH]ncc45)nc(N4CCOCC4)c3s2)CC1 [Pictilisib] (partner 1 µM)
Summary of the method: as §1

[3] = compound: COC1=CC=C(C=C1)COC2=C(C=C(C=C2)CC3=CN=C(N=C3N)N)OC [GW-2580] + C[C@]1(O)C[C@@H](c2nc(-c3ccc4ccc(-c5ccccc5)nc4c3)c3c(N)nccn32)C1 [Linsitinib] (partner 1 µM)
Summary of the method: as §1

[4] = compound: COC1=CC=C(C=C1)COC2=C(C=C(C=C2)CC3=CN=C(N=C3N)N)OC [GW-2580] + NC(=O)Nc1cc(-c2cccc(F)c2)sc1C(=O)N[C@H]1CCCNC1 [AZD7762] (partner 0.2 µM)
Summary of the method: as §1

[5] = compound: Cc1cnc(Nc2ccc(OCCN3CCCC3)cc2)nc1Nc1cccc(S(=O)(=O)NC(C)(C)C)c1 [Fedratinib] + N=C(N)NC(=N)NCCc1ccccc1 [Phenformin] (partner 250 µM)
Summary of the method: as §1

## BEN
[1]; first compound 0.08 µM
  relative viability: 1.05
[1]; first compound 0.8 µM
  relative viability: 1.1
[1]; first compound 2.53 µM
  relative viability: 0.898
[1]; first compound 8 µM
  relative viability: 0.979
[2]; first compound 0.08 µM
  relative viability: 0.612
[2]; first compound 0.8 µM
  relative viability: 0.602
[2]; first compound 2.53 µM
  relative viability: 0.451
[2]; first compound 8 µM
  relative viability: 0.515
[3]; first compound 0.08 µM
  relative viability: 1.08
[3]; first compound 0.8 µM
  relative viability: 1.04
[3]; first compound 2.53 µM
  relative viability: 0.816
[3]; first compound 8 µM
  relative viability: 0.93
[4]; first compound 0.08 µM
  relative viability: 0.642
[4]; first compound 0.8 µM
  relative viability: 0.809
[4]; first compound 2.53 µM
  relative viability: 0.599
[4]; first compound 8 µM
  relative viability: 0.751
[5]; first compound 0.1 µM
  relative viability: 0.251
[5]; first compound 0.3162 µM
  relative viability: 0.231
[5]; first compound 1 µM
  relative viability: 0.292

## NCI-H23
[1]; first compound 0.08 µM
  relative viability: 0.398
[1]; first compound 0.8 µM
  relative viability: 0.371
[1]; first compound 2.53 µM
  relative viability: 0.404
[1]; first compound 8 µM
  relative viability: 0.395
[2]; first compound 0.08 µM
  relative viability: 0.632
[2]; first compound 0.8 µM
  relative viability: 0.46
[2]; first compound 2.53 µM
  relative viability: 0.367
[2]; first compound 8 µM
  relative viability: 0.502
[3]; first compound 0.08 µM
  relative viability: 0.728
[3]; first compound 0.8 µM
  relative viability: 0.626
[3]; first compound 2.53 µM
  relative viability: 0.524
[3]; first compound 8 µM
  relative viability: 0.517
[4]; first compound 0.08 µM
  relative viability: 0.264
[4]; first compound 0.8 µM
  relative viability: 0.21
[4]; first compound 2.53 µM
  relative viability: 0.243
[4]; first compound 8 µM
  relative viability: 0.179
[5]; first compound 0.1 µM
  relative viability: 0.772
[5]; first compound 0.3162 µM
  relative viability: 0.81
[5]; first compound 1 µM
  relative viability: 0.716

## NCI-H1395
[1]; first compound 0.08 µM
  relative viability: 0.975
[1]; first compound 0.8 µM
  relative viability: 0.969
[1]; first compound 2.53 µM
  relative viability: 0.988
[1]; first compound 8 µM
  relative viability: 1.08
[2]; first compound 0.08 µM
  relative viability: 0.626
[2]; first compound 0.8 µM
  relative viability: 0.584
[2]; first compound 2.53 µM
  relative viability: 0.561
[2]; first compound 8 µM
  relative viability: 0.632
[3]; first compound 0.08 µM
  relative viability: 1.07
[3]; first compound 0.8 µM
  relative viability: 1.08
[3]; first compound 2.53 µM
  relative viability: 0.97
[3]; first compound 8 µM
  relative viability: 0.931
[4]; first compound 0.08 µM
  relative viability: 0.421
[4]; first compound 0.8 µM
  relative viability: 0.377
[4]; first compound 2.53 µM
  relative viability: 0.422
[4]; first compound 8 µM
  relative viability: 0.416
[5]; first compound 0.1 µM
  relative viability: 0.392
[5]; first compound 0.3162 µM
  relative viability: 0.378
[5]; first compound 1 µM
  relative viability: 0.47

## 201T
[1]; first compound 0.08 µM
  relative viability: 0.76
[1]; first compound 0.8 µM
  relative viability: 0.753
[1]; first compound 2.53 µM
  relative viability: 0.754
[1]; first compound 8 µM
  relative viability: 0.748
[2]; first compound 0.08 µM
  relative viability: 0.601
[2]; first compound 0.8 µM
  relative viability: 0.701
[2]; first compound 2.53 µM
  relative viability: 0.67
[2]; first compound 8 µM
  relative viability: 0.68
[3]; first compound 0.08 µM
  relative viability: 1.06
[3]; first compound 0.8 µM
  relative viability: 1.14
[3]; first compound 2.53 µM
  relative viability: 1.14
[3]; first compound 8 µM
  relative viability: 1.06
[4]; first compound 0.08 µM
  relative viability: 0.575
[4]; first compound 0.8 µM
  relative viability: 0.579
[4]; first compound 2.53 µM
  relative viability: 0.583
[4]; first compound 8 µM
  relative viability: 0.627
[5]; first compound 0.1 µM
  relative viability: 0.429
[5]; first compound 0.3162 µM
  relative viability: 0.478
[5]; first compound 1 µM
  relative viability: 0.414
